From article PMC12463058, “SF3A3 Drives Tumorigenesis in Endometrial Cancer by Enhancing c‐FOS Expression and Represents a Potential Therapeutic Target” (Advanced Science, 2025) come the findings set out here.

This assay concerns the target T1, splicing factor 3A subunit 3 (SF3A3) (Homo sapiens, UniProt Q12874).
T1 sequence (Q12874 1-501): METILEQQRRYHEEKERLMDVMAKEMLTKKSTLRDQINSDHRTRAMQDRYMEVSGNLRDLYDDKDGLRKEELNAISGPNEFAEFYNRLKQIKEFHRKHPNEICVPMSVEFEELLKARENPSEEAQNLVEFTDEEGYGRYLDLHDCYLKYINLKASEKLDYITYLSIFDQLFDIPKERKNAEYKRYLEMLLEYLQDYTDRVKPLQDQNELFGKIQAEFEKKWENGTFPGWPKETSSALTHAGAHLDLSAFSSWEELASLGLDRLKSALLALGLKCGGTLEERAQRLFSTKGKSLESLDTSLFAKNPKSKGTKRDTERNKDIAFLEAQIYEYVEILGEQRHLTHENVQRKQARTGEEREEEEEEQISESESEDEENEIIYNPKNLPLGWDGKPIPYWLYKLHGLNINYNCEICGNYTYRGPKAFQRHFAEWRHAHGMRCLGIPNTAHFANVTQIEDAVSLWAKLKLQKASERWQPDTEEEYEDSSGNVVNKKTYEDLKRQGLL
The experiment in a line: SPR (Biacore 8K, immobilized purified human SF3A3, steady-state affinity); supported by pulldown mass spectrometry. The class given is binding. Background: Surface plasmon resonance follows binding to a sensor surface in real time, without labels.

Turning to `S=C=NCCc1ccccc1` [PEITC], the equilibrium dissociation constant (Kd) was found to be 10.1 µM.

By Kd is commonly meant the free concentration of one partner at which half of the binding sites on the other are occupied at equilibrium, for simple one-to-one binding.
